Results on 19 substances are retold here after paper PMC6100724, “Proteome‐wide analysis of phospho‐regulated PDZ domain interactions” (Molecular Systems Biology, 2018).

The subject of test [1] is DLG1 PDZ1. As to the kind of experiment: Phosphomimetic ProP-PD selection with NGS. Format: binding, human. As to conditions: mean of selections 1-3, bait DLG1 PDZ1; for Mean fraction #NGS counts mimetic peptide / total count selection: phosphomimetic peptide; for Mean fraction #NGS counts wt peptide / total counts selection: wild type peptide. In outline:
(§1)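 Phage display of a phosphomimetic C-terminal peptide library, four rounds against immobilised GST-tagged PDZ domains with GST pre-selection, binding 2 h at 8 °C. Phospho-library selections were run in HBS, pH 7.4. Round-three pools were analysed by NGS (Phred ≥30, ≤2 mismatches); binding was scored as the fraction of reads, not the absolute count.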

In test [2] the test system is Scribble PDZ3. As to the kind of experiment: Phosphomimetic ProP-PD selection with NGS. To be noted: mean over selections 1-3; bait Scribble PDZ3. Format: binding, human. In outline:
as §1

In test [3] the test system is DLG1 PDZ3. As to the kind of experiment: Phosphomimetic ProP-PD selection with NGS. In kind it is binding, human. As to conditions: mean of selections 1-3; bait DLG1 PDZ3. In outline: as §1
In test [4] the target is T1, DLG1 PDZ2 (Homo sapiens, UniProt Q12959).
T1 construct: human DLG1 PDZ2 aa 311–407 in a modified pRSET vector 40; made in house; host or cells: E. coli BL21 Gold (DE3)
T1 sequence (Q12959 311-407): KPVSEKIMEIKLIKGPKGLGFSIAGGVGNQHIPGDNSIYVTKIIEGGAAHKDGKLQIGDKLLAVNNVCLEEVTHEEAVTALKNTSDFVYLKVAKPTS
As to the kind of experiment: Phosphomimetic ProP-PD selection with NGS. Format: binding. As to conditions: mean of selections 1-3, bait DLG1 PDZ2. In outline:
as §1

Test [5] deals with T2, Scribble PDZ1 (Homo sapiens, UniProt Q14160).
T2 construct: human Scribble PDZ1 aa 719–829 in; made in house; host or cells: E. coli BL21 Gold (DE3)
T2 sequence (Q14160 719-829): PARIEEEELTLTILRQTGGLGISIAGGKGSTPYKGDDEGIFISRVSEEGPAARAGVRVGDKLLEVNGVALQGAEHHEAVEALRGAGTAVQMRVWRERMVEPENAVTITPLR
Briefly: Pre-phosphorylation ProP-PD: wild-type library treated with RPS6KA1 or not, selection with NGS. Format: binding. As to conditions: for Phosphorylated selection Mean fraction: Pre-phosphorylation with RPS6KA1; for Phosphorylated selection Mean fraction / Unphosphorylated selection Mean fraction: mean of the two selections, bait Scribble PDZ1; for Unphosphorylated selection Mean fraction: Without Kinase. As for the experimental part:
For pre‐phosphorylation of the wild‐type ProP‐PD library, we obtained activated RPS6KA1 (Thermo Fisher). The time and amount of kinase required to phosphorylate the ProP‐PD library were tested in a phosphorylation assay.
Phage selections were carried out for four rounds following a protocol by Huang and Sidhu (Huang & Sidhu, 2011) with minor modifications. Non‐specific binding phage was removed by pre‐selections against immobilized GST throughout the selection. The selections against the (pre‐)phosphorylated wild‐type library were performed in 50 mM HEPES (pH 7.4) and 150 mM NaCl (HBS) following the same procedure after pre‐phosphorylation of the library.
• Immobilize proteins (15 μg in 100 μl PBS) in a 96‐well MaxiSorp microtiter plate (NUNC) overnight at 4°C. • Start a 2YT culture of E. coli Omnimax supplemented with 100 μg/ml tetracycline to retain the F pilus epitope. • Block the wells with 200 μl 0.5% BSA in PBS for 2 h at 4°C. • Precipitate naïve phage library (10^11 cfu per selection) or amplified phage pool from the previous round of selection by adding one‐fifth the volume of PEG/NaCl. • Incubate on ice for 10 min, and pellet precipitated phage by centrifugation at 5,300 g for 15 min. Resuspend the phage pellet in 100 μl PBS per selection. • Add 100 μl of phage solution to the GST‐coated pre‐selection wells and incubate for 1 h. • Transfer the phage solution to the immobilized target proteins and allow it to bind for 2 h at 8°C. • Wash the plate four times with 200 μl cold wash buffer (PBS, 0.05% Tween‐20). • Elute bound phage by incubation with 100 μl log phase (0.6–0.8 OD600) E. coli Omnimax for 30 min at 37°C with shaking (200 RPM). • Add 10^12 cfu/ml M13K07 helper phage for hyperinfection of the bacteria and incubate as above for 45 min. • Transfer the bacterial culture to 10 ml 2YT supplemented with 50 μg/ml carbenicillin, 25 μg/ml kanamycin, and 300 μM IPTG and incubate overnight at 37°C while shaking. • Perform phage pool ELISA to monitor the progress of the selection as described previously (Huang & Sidhu, 2011).
• Precipitate the naive wild‐type phage library (as described above, 1.8 × 10^10 cfu phage per selection). • Resuspend the precipitated phage pellets in 100 μl Kinase buffer per selection and add ATP (100 μM final concentration) and RPS6KA1 (500 ng/ml) to the phage solution. In parallel, prepare a negative control where only ATP is added to the phage pool. • Incubate the phosphorylation reaction for 2 h at room temperature. Stop the reaction through PEG/NaCl precipitation (as described above). • Resuspend the phage pool in 100 μl HBS.
During the 4 days of pre‐phosphorylation ProP‐PD selections, the input phage library of each day of selection was subjected to phosphorylation prior to phage selection.
The naïve library and the enriched phage pools of the third day of selection were amplified and barcoded by PCR and analyzed by NGS as described elsewhere (McLaughlin & Sidhu, 2013; Ivarsson et al, 2014). The reads were demultiplexed using the barcode sequences and filtered by discarding sequences with a Phred quality score under 30. Sequences were mapped to the original library using Bowtie (Langmead et al, 2009) with two mismatches between reads and library sequence. Nucleotide mutations leading to amino acid substitutions were subsequently removed. Cutoff values of NGS counts were assigned for each pool. PWMs were generated based on the remaining peptides (aligned on the C‐termini) using WebLogo (Crooks et al, 2004).

As for GGKRKEELV, the “Mean fraction #NGS counts mimetic peptide / total count selection” value amounted to 3.0718e-6 in test [1], 0 in test [2], 0 in test [3] and 0.0001104 in test [4].
For the substance RATSPGSGL, the “Mean fraction #NGS counts wt peptide / total counts selection” value in test [3] is on record as 0.001731.
On to TALKVMTMV [DACT2], for which, in test [5], the “Phosphorylated selection Mean fraction” value came to 2.797e-5 and the “Unphosphorylated selection Mean fraction” value is 9.668e-6.
With PIHSLETSL [ATP2B2], in test [5], the “Phosphorylated selection Mean fraction” value amounted to 0.0009701 and the “Unphosphorylated selection Mean fraction” value came to 0.003212.
With GGKRKETLV, the “Mean fraction #NGS counts wt peptide / total counts selection” value is given as 0.3267 in test [1], 6.172e-5 in test [2], 0.06478 in test [3] and 0.3203 in test [4].
Turning to EIKLKTSFF, the “Mean fraction #NGS counts mimetic peptide / total count selection” value in test [1] turned out to be 0.06227; in test [2], 6.807e-5; in test [3], 0.01375; in test [4] (phosphomimetic peptide), 0.002811.
Regarding TMFLRETSL [GUCY1A2], in test [5], the “Phosphorylated selection Mean fraction” value is 0.5527 and the “Unphosphorylated selection Mean fraction” value is reported as 0.1808.
Taken in the same sequence, the figures for PLHSLETSL [ATP2B1] were 0.0003108 and 1.381e-5.
For the substance SARLWETSI [ADAM22], in test [5], the “Phosphorylated selection Mean fraction” value came to 0.05157 and the “Unphosphorylated selection Mean fraction” value is recorded as 0.03077.
For LPKIKETTV [FRMPD4], in that order: 0.001062 and 0.0007483.
Taken in the same sequence, the figures for VWLRKETRV [CYSLTR2] were 7.3245e-6 and 0.
As for RQTSYQGVL, the “Mean fraction #NGS counts wt peptide / total counts selection” value in test [3] amounted to 0.008629; in test [4] it was 0.001671.
As for PANRRTTPV, the “Mean fraction #NGS counts wt peptide / total counts selection” value in test [1] and in test [3] was 0 throughout.
In the case of RSRSISTDV [FAM163B], in test [5], the “Phosphorylated selection Mean fraction” value is 0 and the “Unphosphorylated selection Mean fraction” value is reported as 2.348e-5.
Turning to LPHSPHSHL [AAAS], in test [5], the “Phosphorylated selection Mean fraction” value is 6.993e-6 and the “Unphosphorylated selection Mean fraction” value was 4.139e-6.
Take TMFLRETSL‐coo‐: the “proportion of NGS counts, pre‐phosphorylated library relative to unphosphorylated library (fold)” value in test [5] (phage-displayed peptide, library treated with RPS6KA1, selection against Scribble PDZ1, n = 2) was 3 ×.
On to YSPSMTMSV, for which the “Mean fraction #NGS counts wt peptide / total counts selection” value in test [3] came out at 7.133e-5.
As to SIDLWETAL [SLC15A5], in test [5], the “Phosphorylated selection Mean fraction” value stood at 0.0004582 and the “Unphosphorylated selection Mean fraction” value came to 1.656e-5.
In the case of RPYRREEEI, the “Mean fraction #NGS counts mimetic peptide / total count selection” value in test [2] and in test [3] was 0 throughout.
